According to ChEMBL document CHEMBL1909046, “DrugMatrix in vitro pharmacology data”:
pIC50, pKi: −log10 of the molar value.

Columns and labels:
[1] = molecular target: Tyrosine-protein kinase Lck (Homo sapiens, UniProt P06239); assay: DRUGMATRIX: Protein Tyrosine Kinase, LCK enzyme inhibition (substrate: Poly(Glu:Tyr)); format: cell-based, Insect cells; conditions: insect cells; Not Active = under 50% inhibition at 10 µM
[2] = molecular target: T1, C-X-C chemokine receptor type 1 (Homo sapiens, UniProt P25024); note: in other assays of this panel Not Active means under 50% inhibition at 10 µM
T1 sequence (P25024 whole entry): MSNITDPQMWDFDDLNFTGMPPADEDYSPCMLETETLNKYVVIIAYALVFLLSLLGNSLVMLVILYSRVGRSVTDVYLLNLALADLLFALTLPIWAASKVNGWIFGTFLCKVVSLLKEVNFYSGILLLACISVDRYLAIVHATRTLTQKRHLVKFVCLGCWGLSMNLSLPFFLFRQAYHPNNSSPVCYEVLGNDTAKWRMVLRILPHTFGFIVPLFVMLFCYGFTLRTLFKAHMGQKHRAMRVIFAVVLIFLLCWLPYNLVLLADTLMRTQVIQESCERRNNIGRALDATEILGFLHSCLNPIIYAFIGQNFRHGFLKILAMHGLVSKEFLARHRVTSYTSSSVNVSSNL

[3] = DRUGMATRIX: Phorbol Ester radioligand binding (ligand: [3H] PDBu); format: cell membranes, Mus musculus, ICR, Brain, Membrane; conditions: Not Active = under 50% inhibition at 10 µM
[4] = molecular target: Sigma non-opioid intracellular receptor 1 (Homo sapiens, UniProt Q99720); assay: DRUGMATRIX: Sigma1 radioligand binding (ligand: [3H] Haloperidol); format: cell membranes, Jurkat, Membrane; conditions: jurkat; Not Active = under 50% inhibition at 10 µM
Nitric oxide synthase 1 = Nitric oxide synthase 1 (Rattus norvegicus, UniProt P29476); format: tissue-based, Cerebellum; note: in other assays of this panel Not Active means under 50% inhibition at 10 µM
[5] = molecular target: cGMP-specific 3',5'-cyclic phosphodiesterase (Homo sapiens, UniProt O76074); assay: DRUGMATRIX: Phosphodiesterase PDE5 enzyme inhibition (substrate: [3H]cGMP + cGMP); format: tissue-based; conditions: platelet; Not Active = under 50% inhibition at 10 µM
[6] = molecular target: 5-hydroxytryptamine receptor 6 (Homo sapiens, UniProt P50406); format: cell membranes, HeLa, Membrane; conditions: for IC50: hela; for all read-outs here: in other assays of this panel Not Active means under 50% inhibition at 10 µM
Insulin receptor = Insulin receptor (Rattus norvegicus, UniProt P15127); format: cell membranes, Wistar, Liver, Membrane; note: in other assays of this panel Not Active means under 50% inhibition at 10 µM
[7] = DRUGMATRIX: Potassium Channel [KATP] radioligand binding (ligand: [3H] Glyburide); format: cell membranes, Membrane; conditions: hit-t15; Not Active = under 50% inhibition at 10 µM
Adenosine receptor A1 = molecular target: T2, Adenosine receptor A1 (Homo sapiens, UniProt P30542); format: cell membranes, Membrane; conditions: cho
T2 sequence (P30542 whole entry): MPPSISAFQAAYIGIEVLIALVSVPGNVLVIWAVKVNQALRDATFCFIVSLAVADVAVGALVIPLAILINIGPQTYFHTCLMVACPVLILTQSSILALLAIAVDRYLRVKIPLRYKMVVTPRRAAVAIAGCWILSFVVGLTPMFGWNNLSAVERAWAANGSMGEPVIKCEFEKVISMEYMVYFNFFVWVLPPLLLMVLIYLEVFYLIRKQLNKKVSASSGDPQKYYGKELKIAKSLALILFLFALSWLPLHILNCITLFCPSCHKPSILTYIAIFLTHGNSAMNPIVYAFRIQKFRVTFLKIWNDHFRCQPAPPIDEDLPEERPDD

[8] = molecular target: Delta-type opioid receptor (Homo sapiens, UniProt P41143); format: cell membranes, HEK293, Membrane; conditions: hek293; note: in other assays of this panel Not Active means under 50% inhibition at 10 µM
Chain of Delta-type opioid receptor (P41143 whole entry): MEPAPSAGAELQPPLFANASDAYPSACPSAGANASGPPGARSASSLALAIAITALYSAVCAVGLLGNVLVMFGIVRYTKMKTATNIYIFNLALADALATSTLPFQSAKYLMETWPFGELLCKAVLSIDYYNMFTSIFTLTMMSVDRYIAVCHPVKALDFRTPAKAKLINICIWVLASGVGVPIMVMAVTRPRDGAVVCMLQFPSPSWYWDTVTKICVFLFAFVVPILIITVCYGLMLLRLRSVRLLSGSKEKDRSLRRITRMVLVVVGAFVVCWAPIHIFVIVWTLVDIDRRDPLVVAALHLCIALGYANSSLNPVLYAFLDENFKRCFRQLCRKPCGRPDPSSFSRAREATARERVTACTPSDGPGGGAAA

Chain of Nitric oxide synthase 1 (P29476 whole entry): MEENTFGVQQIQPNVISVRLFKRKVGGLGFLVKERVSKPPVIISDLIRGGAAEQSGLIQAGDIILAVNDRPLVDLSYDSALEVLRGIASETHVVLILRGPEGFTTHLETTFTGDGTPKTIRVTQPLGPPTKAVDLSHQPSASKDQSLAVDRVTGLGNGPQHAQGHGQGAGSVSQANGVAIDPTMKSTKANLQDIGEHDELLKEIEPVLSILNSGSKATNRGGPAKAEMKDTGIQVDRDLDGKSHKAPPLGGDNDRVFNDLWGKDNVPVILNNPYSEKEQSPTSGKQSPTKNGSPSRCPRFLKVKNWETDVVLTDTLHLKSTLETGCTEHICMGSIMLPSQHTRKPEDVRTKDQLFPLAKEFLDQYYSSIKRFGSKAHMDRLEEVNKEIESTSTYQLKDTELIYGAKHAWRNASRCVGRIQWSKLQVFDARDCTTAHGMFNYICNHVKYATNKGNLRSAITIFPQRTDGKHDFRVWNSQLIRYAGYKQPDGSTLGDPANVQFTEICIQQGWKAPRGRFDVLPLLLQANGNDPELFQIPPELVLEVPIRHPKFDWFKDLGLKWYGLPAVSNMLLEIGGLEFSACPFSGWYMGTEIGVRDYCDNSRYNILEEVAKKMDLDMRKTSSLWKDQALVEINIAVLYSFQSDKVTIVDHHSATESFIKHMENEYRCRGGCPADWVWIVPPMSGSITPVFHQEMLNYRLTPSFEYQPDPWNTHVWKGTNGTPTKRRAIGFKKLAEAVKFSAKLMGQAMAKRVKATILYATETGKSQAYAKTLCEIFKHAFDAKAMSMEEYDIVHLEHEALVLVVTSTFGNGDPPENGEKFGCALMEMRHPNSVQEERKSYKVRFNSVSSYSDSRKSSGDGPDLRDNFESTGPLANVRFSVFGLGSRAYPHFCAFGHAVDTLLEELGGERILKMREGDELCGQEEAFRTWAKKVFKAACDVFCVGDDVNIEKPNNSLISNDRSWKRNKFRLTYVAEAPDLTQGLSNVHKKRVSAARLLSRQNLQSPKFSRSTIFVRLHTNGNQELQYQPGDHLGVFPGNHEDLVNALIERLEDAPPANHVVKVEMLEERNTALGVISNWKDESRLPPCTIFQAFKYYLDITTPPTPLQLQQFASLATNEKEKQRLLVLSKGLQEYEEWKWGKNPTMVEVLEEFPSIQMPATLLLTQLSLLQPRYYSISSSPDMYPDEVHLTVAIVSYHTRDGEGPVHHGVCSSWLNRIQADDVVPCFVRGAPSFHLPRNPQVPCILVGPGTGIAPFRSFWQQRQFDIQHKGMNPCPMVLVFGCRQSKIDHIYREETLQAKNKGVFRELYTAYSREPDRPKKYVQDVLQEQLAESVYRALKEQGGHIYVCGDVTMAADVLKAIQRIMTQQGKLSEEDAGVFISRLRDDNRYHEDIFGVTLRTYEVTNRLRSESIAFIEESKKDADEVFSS
Chain of 5-hydroxytryptamine receptor 6 (P50406 whole entry): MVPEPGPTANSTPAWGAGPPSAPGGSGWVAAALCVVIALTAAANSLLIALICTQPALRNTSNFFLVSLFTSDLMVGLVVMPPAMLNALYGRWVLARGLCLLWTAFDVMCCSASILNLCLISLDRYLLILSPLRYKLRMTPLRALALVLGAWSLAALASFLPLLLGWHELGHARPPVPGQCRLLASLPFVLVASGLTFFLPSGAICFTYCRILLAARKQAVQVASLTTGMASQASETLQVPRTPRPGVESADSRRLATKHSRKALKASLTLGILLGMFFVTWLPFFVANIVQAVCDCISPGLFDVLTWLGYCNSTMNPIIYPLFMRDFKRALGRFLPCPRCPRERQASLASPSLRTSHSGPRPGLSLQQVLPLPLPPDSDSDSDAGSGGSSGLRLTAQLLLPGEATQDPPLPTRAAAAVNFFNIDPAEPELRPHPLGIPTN
Chain of Insulin receptor (P15127 27-759 limits assumed): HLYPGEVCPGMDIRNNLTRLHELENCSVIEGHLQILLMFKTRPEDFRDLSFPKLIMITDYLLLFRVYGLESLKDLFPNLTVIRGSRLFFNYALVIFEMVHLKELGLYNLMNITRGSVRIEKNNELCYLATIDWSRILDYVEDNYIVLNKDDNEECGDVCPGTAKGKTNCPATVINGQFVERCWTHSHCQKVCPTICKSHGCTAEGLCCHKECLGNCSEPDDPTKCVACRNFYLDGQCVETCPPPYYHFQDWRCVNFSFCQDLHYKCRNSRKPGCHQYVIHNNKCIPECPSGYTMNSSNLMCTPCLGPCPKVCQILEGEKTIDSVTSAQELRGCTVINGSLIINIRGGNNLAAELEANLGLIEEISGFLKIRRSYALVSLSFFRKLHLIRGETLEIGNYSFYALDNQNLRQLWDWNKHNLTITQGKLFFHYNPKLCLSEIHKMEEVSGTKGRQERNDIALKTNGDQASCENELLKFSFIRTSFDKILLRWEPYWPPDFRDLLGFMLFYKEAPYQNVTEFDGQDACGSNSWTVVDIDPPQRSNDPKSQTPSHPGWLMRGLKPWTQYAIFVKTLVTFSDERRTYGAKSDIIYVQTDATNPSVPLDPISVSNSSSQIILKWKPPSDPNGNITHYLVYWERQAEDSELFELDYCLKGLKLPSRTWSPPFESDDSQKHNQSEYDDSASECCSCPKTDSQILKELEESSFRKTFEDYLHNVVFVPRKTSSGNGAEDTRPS
Chain of Insulin receptor (P15127 764-1383 limits assumed): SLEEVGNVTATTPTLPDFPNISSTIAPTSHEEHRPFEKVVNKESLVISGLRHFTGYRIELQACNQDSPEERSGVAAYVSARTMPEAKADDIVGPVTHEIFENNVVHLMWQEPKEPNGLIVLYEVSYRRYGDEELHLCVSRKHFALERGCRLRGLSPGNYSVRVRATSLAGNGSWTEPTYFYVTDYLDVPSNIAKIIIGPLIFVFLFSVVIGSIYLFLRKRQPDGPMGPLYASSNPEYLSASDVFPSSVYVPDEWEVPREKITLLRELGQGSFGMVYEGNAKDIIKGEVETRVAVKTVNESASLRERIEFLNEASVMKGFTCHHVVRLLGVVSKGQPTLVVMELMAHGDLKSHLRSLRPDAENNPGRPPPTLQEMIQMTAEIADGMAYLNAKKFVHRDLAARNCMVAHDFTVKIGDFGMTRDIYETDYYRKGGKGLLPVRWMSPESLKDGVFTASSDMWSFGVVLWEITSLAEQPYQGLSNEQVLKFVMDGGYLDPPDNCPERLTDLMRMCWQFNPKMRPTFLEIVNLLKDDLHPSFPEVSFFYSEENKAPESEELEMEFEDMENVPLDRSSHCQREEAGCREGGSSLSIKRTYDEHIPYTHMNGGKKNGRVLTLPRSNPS
Chain of Tyrosine-protein kinase Lck (P06239 whole entry): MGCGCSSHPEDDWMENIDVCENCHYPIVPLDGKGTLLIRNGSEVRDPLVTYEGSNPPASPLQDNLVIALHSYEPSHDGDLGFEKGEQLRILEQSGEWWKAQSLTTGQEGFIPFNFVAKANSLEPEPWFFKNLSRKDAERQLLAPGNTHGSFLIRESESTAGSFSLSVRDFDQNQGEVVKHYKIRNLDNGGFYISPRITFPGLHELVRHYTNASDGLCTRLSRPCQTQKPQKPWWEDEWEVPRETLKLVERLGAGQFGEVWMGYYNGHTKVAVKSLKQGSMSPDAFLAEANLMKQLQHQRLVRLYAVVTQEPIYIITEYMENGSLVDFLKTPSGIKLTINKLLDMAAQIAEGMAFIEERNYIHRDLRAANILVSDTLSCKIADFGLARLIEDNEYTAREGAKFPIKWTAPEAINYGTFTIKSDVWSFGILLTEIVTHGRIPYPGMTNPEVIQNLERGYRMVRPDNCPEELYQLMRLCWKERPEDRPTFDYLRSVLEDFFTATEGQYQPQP
Chain of Sigma non-opioid intracellular receptor 1 (Q99720 whole entry): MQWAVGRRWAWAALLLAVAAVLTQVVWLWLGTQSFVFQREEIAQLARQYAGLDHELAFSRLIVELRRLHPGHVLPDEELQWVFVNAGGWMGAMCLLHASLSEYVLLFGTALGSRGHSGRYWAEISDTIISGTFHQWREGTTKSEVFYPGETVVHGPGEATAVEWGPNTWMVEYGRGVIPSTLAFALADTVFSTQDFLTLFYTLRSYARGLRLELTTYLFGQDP

Row | Compound | IC50 [1] | IC50 [2] | IC50 [3] | Ki [3] | IC50 [4] | IC50 (Nitric oxide synthase 1) | IC50 [5] | IC50 [6] | IC50 (Insulin receptor) | IC50 [7] | Ki [7] | IC50 (Adenosine receptor A1) | IC50 [8] | pIC50 ([6]; read-out: IC50) | pKi ([6]; read-out: Ki)
1 | [H]/N=C(/N)N[C@H]1[C@H](O)[C@@H](O)[C@H](O[C@@H]2O[C@@H](C)[C@](O)(C=O)[C@H]2O[C@@H]2O[C@@H](CO)[C@H](O)[C@@H](O)[C@@H]2NC)[C@@H](N/C(N)=N\[H])[C@@H]1O [STREPTOMYCIN] | Not Active | Not Active | Not Active | Not Active | Not Active | Not Active | Not Active | Not Active | Not Active | Not Active | Not Active | Not Active | Not Active | – | –
2 | COc1cc(NS(=O)(=O)c2ccc(N)cc2)nc(OC)n1 [SULFADIMETHOXINE] | Not Active | Not Active | Not Active | Not Active | Not Active | Not Active | Not Active | – | Not Active | Not Active | Not Active | Not Active | Not Active | 5.87 | 6.21
3 | Cc1cc(C)nc(NS(=O)(=O)c2ccc(N)cc2)n1 [SULFAMETHAZINE] | Not Active | Not Active | Not Active | Not Active | Not Active | Not Active | Not Active | Not Active | Not Active | Not Active | Not Active | Not Active | Not Active | – | –
4 | C[C@]1(Cn2ccnn2)[C@H](C(=O)O)N2C(=O)C[C@H]2S1(=O)=O [TAZOBACTAM] | Not Active | Not Active | Not Active | Not Active | Not Active | Not Active | Not Active | Not Active | Not Active | Not Active | Not Active | Not Active | Not Active | – | –
5 | CN1C(C(=O)Nc2ccccn2)=C(O)c2sccc2S1(=O)=O [TENOXICAM] | Not Active | Not Active | Not Active | Not Active | Not Active | Not Active | Not Active | Not Active | Not Active | Not Active | Not Active | Not Active | Not Active | – | –
6 | O=C1CCC(N2C(=O)c3ccccc3C2=O)C(=O)N1 (configuration not stated) [THALIDOMIDE] | Not Active | Not Active | Not Active | Not Active | Not Active | Not Active | Not Active | Not Active | Not Active | Not Active | Not Active | Not Active | Not Active | – | –
7 | Cc1cccc(Nc2ccncc2S(=O)(=O)NC(=O)NC(C)C)c1 [TORSEMIDE] | Not Active | Not Active | Not Active | Not Active | Not Active | Not Active | Not Active | Not Active | Not Active | Not Active | Not Active | Not Active | Not Active | – | –
8 | CC(C)C[C@H](NC(=O)[C@@H](O)[C@H](N)Cc1ccccc1)C(=O)O [UBENIMEX] | Not Active | Not Active | Not Active | Not Active | Not Active | Not Active | Not Active | Not Active | Not Active | Not Active | Not Active | Not Active | Not Active | – | –
9 | Cc1onc(-c2ccccc2)c1-c1ccc(S(N)(=O)=O)cc1 [VALDECOXIB] | Not Active | Not Active | Not Active | Not Active | Not Active | Not Active | Not Active | Not Active | Not Active | Not Active | Not Active | Not Active | Not Active | – | –
10 | CC[C@]1(O)C[C@@H]2CN(CCc3c([nH]c4ccccc34)[C@@](C(=O)OC)(c3cc4c(cc3OC)N(C)[C@H]3[C@@](O)(C(=O)OC)[C@H](OC(C)=O)[C@]5(CC)C=CCN6CC[C@]43[C@@H]65)C2)C1 [VINBLASTINE] | Not Active | Not Active | Not Active | Not Active | Not Active | Not Active | Not Active | Not Active | Not Active | Not Active | Not Active | Not Active | Not Active | – | –
11 | CC(=O)CC(c1ccccc1)c1c(O)c2ccccc2oc1=O (configuration not stated) [WARFARIN] | Not Active | Not Active | Not Active | Not Active | Not Active | Not Active | Not Active | Not Active | Not Active | Not Active | Not Active | Not Active | Not Active | – | –
12 | [Cl-].[Cl-].[Zn+2] [ZINC CHLORIDE] | Not Active | Not Active | Not Active | Not Active | Not Active | Not Active | Not Active | Not Active | Not Active | Not Active | Not Active | Not Active | Not Active | – | –
